Entries after “also recorded” stand apart in the source; their conditions may differ.
What was measured:
[1] = test system: males and females with IBS-c; experiment: Phase 2a randomized, double-blind, placebo-controlled clinical trial: weekly symptom-based assessments (OSGA, abdominal discomfort/pain, constipation, satisfaction with bowel habit); type: in vivo, human
Method: The Clinical Trial reported herein was a Phase 2a, Randomized, Double-Blind, Placebo-Controlled Study. In the Study, 91 males and females with IBS-c were administered doses of DDP733 (0.2, 0.5, 0.8 and 1.4 mg) and placebo, three times a day for 28 days (4 weeks). Study Details: • Phase 2a, randomized, double-blinded, placebo controlled parallel group design • 91 males and females with IBS-c • 7 week study with 4 weeks of treatment • Five treatment groups: • DDP733: 0.2 mg, 0.5 mg, 0.8 mg or 1.4 mg three times a day (approximately 30 to 60 minutes before breakfast, lunch and dinner) • PLACEBO: Three times a day (approximately 30 to 60 minutes before breakfast, lunch and dinner). • Assess effect on relief of IBS-c using symptom-based assessment including the following weekly questions: Overall response (OSGA); Abdominal discomfort/pain; Constipation; and Satisfaction with bowel habit. • Assess effect on pharmacodynamic measure (gastrointestinal transit) at baseline and week 4 using radio-opaque markers. • Establish safety profile. Key Subject Inclusion Criteria: • 1. Male or female from 18 to 65 years of age, inclusive • 2. IBS-c for at least three months prior to randomization as defined by the subject's response to the criteria below adapted from the Rome II • Modular Questionnaire: • a. Subject experiences discomfort or pain in the abdomen during at least 3 weeks (at least one day in each week) in the last 3 months. • b. Subject experiences one or more of the following: • i. Discomfort or pain that gets better or stops after a bowel movement • ii. Change in the usual number of bowel movements (either more or fewer) when the discomfort or pain starts • iii. Softer or harder stools than usual when the discomfort or pain starts • c. Patient experiences two or more of the following at least one-fourth (¼) of the occasions or days in the last three months: • i. Fewer than three bowel movements per week (0-2) • ii. Hard or lumpy stools • iii. Straining during a bowel movement • d. Patient experiences none of the following more than one-fourth (¼) of the occasions or days in the last three months: • i. More than three bowel movements a day (4 or more) • ii. Loose, mushy or watery stools • iii. Having to rush to the toilet to have a bowel movement • 3. Completion of at least six days of daily diary assessments in the week of screening prior to Visit 3 with a documented average stool consistency score of ≦2.5. Stool consistency was rated as 1=very hard, 2=hard, 3=formed, 4=loose, 5=watery. Clinical Symptoms were assessed using the following weekly questions: [table] […] Subjects were defined as Overall SGA responders, prior to the study, if: • 1. Somewhat relieved or better at 100% of SGAs (Response 3 at all weekly time points), or considerably/completely relieved for at least 50% of SGAs (Response 1 or 2 for at least 2 of the 4 weekly timepoints) or considerably/completely relieved at Week 4 (Response 1 or 2 at Week AND • 2. No more than 5 days of laxative use excluding bulk-forming laxatives over the 4-week treatment period.

[2] = test system: males and females with IBS-c; experiment: Phase 2a clinical trial: safety measurements (vital signs, adverse events, clinical laboratory testing, ECGs); type: in vivo, human; details: 0.2, 0.5, 0.8 or 1.4 mg three times a day for 28 days
Method: The Clinical Trial reported herein was a Phase 2a, Randomized, Double-Blind, Placebo-Controlled Study. In the Study, 91 males and females with IBS-c were administered doses of DDP733 (0.2, 0.5, 0.8 and 1.4 mg) and placebo, three times a day for 28 days (4 weeks). Study Details: • Phase 2a, randomized, double-blinded, placebo controlled parallel group design • 91 males and females with IBS-c • 7 week study with 4 weeks of treatment • Five treatment groups: • DDP733: 0.2 mg, 0.5 mg, 0.8 mg or 1.4 mg three times a day (approximately 30 to 60 minutes before breakfast, lunch and dinner) • PLACEBO: Three times a day (approximately 30 to 60 minutes before breakfast, lunch and dinner). Safety measurements included monitoring of vital signs and adverse events, clinical laboratory testing and performance of electrocardiograms (ECGs).

[3] = overall responders within the 1.4 mg, 3 times a day treatment group

diarrhea reported by responders during the treatment period ([1]; 4.2 mg/day group, responders): no responders reported any diarrhea
Compound: O=C(N[C@H]1CN2CCC1CC2)c1c[nH]c2ccsc2c1=O [DDP733, (R)—N-1-azabicyclo[2.2.2]oct-3-yl-4,7-dihydro-7-oxothieno[3,2-b]pyridine-6-carboxamide]
subjects reporting overall symptom relief (Overall SGA responders, OSGA) ([1]; 1.4 mg three times a day (4.2 mg/day), oral, 4-week treatment, IBS-c subjects, placebo about 15%): 54% | statistical significance on clinical endpoint overall symptom relief (OSGA) ([1]; 1.4 mg three times a day (4.2 mg/day), Pearson chi squared test): Statistical significance (using the Pearson chi squared test) was achieved | OSGA clinical response at one week post-treatment ([1]; 1.4 mg three times a day, one week post-treatment (FIG. 2)): lost (i.e., returned to the level of placebo); also recorded: loss of response (return to level of placebo response) | other weekly subject global assessments (abdominal discomfort/pain, constipation, satisfaction with bowel habit) ([1]; 4.2 mg/day dose, Questionnaires 2, 3 and 4): consistent pattern of improvement | laxative use among responders showing overall symptom relief ([1]; 4.2 mg/day group, responders, treatment period): relief was achieved in all responders without the use of laxatives | constipation and satisfaction with bowel habit [1, 3]: also improved on treatment | weekly pain response (Variable 2, abdominal discomfort/pain) [1, 3]: a decrease in weekly pain response was observed | drug related adverse events (nausea, pruritis and rash) [2]: mainly mild-moderate, transient in nature and required no intervention | lab or ECG abnormalities [2]: no pattern of lab or ECG abnormalities
